From patent US20080096861A1, “Chemical Compounds” (SMITHKLINE BEECHAM CORPORATION, priority 2004, published 2008)
Like-named read-outs stand apart in the source and are kept apart here.

What was measured:
Format in all cases: cell-based
HIV-1 IIIB = test: HOS HIV-1 infectivity assay
In short: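 Blockade of infection is measured in HOS cells carrying hCD4, hCXCR4, hCCR5 and an HIV-LTR-driven luciferase, using virus grown in human peripheral blood lymphocytes. After 96 h, Steady-Glo luminescence reports infection, while CellTiter-Glo gauges cytotoxicity without virus.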

[1] = system: HIV-1 gp160 (HXB2 strain) mediated cell/cell fusion; test: Cell/cell fusion assay (HOS hCXCR4/hCCR5/hCD4/pHIV-LTR-luciferase cells with HEK-293 cells expressing HIV-1 tat, rev, gp160), luciferase readout; details: Homo sapiens, HEK293, 24 h, read-out: Fusion assay (pIC50) (converted)
Description: The complete coding sequences of HIV-1 tat (GenBank Accession No. X07861) and rev (GenBank Accession No. M34378) were cloned into pcDNA3.1 expression vectors containing G418 and hygromycin resistance genes, respectively. The complete coding sequence of the HIV-1 (HXB2 strain) gp160 envelope gene (nucleotide bases 6225-8795 of GenBank Accession No. K03455) was cloned into plasmid pCRII-TOPO. The three HIV genes were additionally inserted into the baculovirus shuttle vector, pFastBacMam1, under the transcriptional control of the CMV promoter. A construction of the pHIV-1 LTR containing mutated NFkB sequences linked to the luciferase reporter gene was prepared by digesting pcDNA3.1, containing the G418 resistance gene, with Nru I and Bam HI to remove the CMV promoter. LTR-luc was then cloned into the Nru I/Bam HI sites of the plasmid vector. Plasmid preparations were performed after the plasmids were amplified in Escherichia coli strain DH5-alpha. The fidelity of the inserted sequences was confirmed by double-strand nucleotide sequencing using an ABI Prism Model 377 automated sequencer.
Recombinant BacMam baculoviruses were constructed from pFastBacMam shuttle plasmids by using the bacterial cell-based Bac-to-Bac system. Viruses were propagated in Sf9 (Spodoptera frugiperda) cells cultured in Hink's TNM-FH Insect media supplemented with 10% (v/v) fetal bovine serum and 0.1% (v/v) pluronic F-68 according to established protocols.
Human osteosarcoma (HOS) cells that naturally express human CXCR4 were transfected with human CCR5, human CD4 and the pHIV-LTR-luciferase plasmid using FuGENE 6 transfection reagent. Single cells were isolated and grown under selection condition in order to generate a stable HOS (hCXCR4/hCCR5/hCD4/pHIV-LTR-luciferase) clonal cell line. The cells were maintained in Dulbeccos modified Eagles media supplemented with 10% fetal calf serum (FCS), G418 (400 ug/ml), puromycin (1 ug/ml), mycophenolic acid (40 ug/ml), xanthine (250 ug/ml) and hypoxanthine (13.5 ug/ml) to maintain a selection pressure for cells expressing the LTR-luciferase, hCCR5 and hCD4, respectively. Human embryonic kidney (HEK-293) cells stably transfected to express the human macrophage scavenging receptor (Class A, type 1; GenBank Accession No. D90187), were maintained in DMEM/F-12 media (1:1) supplemented with 10% FCS and 1.5 ug/ml puromycin. The expression of this receptor by the HEK-293 cells enhances their ability to stick to tissue culture treated plasticware.
HEK-293 cells were harvested using enzyme-free cell dissociation buffer. The cells were resuspended in DMEM/F-12 media supplemented with 10% FCS and 1.5 ug/ml and counted. Tranductions were performed by direct addition of BacMam baculovirus containing insect cell media to cells. The cells were simultaneously transduced with BacMam baculovirus expressing HIV-1 tat, HIV-1 rev and HIV-1 gp160 (from the HXB2 HIV strain). Routinely an MOI of 10 of each virus was added to the media containing the cells. 2 mM butyric acid was also added to the cells at this stage to increase protein expression in transduced cells. The cells were subsequently mixed and seeded into a flask at 30 million cells per T225. The cells were incubated at 37° C., 5% CO2, 95% humidity for 24 h to allow for protein expression.
HEK and HOS cells were harvested in DMEM/F-12 media containing 2% FCS and DMEM media containing 2% FCS, respectively, with no selection agents added. Compounds were plated as 1 ul spots in 100% DMSO on a 96-well CulturPlate plates. HOS cells (50 ul) were added first to the wells, followed immediately by the HEK cells (50 ul). The final concentration of each cell type was 20,000 cells per well. Following these additions, the cells were returned to a tissue culture incubator (37° C.; 5% CO2/95% air) for an additional 24 h.
Following the 24 h incubation, total cellular luciferase activity was measured using the LucLite Plus assay kit (Packard, Meridien, Conn.). […]

CXCR4 receptor = biological target: T1, CXCR4 receptor (Homo sapiens, UniProt P61073); test: Functional FLIPR assay (block of SDF-1 alpha induced [Ca2+]i change); details: HEK-293 cells, human CXCR4 BacMam and Gqi5 BacMam, read-out: Functional assay (pIC50) (converted)
T1 construct: expressed in transfected cells; host or cells: HEK-293 cells (stably expressing human macrophage scavenger receptor) transduced with human CXCR4 BacMam and Gqi5 BacMam
T1 sequence (P61073 whole entry): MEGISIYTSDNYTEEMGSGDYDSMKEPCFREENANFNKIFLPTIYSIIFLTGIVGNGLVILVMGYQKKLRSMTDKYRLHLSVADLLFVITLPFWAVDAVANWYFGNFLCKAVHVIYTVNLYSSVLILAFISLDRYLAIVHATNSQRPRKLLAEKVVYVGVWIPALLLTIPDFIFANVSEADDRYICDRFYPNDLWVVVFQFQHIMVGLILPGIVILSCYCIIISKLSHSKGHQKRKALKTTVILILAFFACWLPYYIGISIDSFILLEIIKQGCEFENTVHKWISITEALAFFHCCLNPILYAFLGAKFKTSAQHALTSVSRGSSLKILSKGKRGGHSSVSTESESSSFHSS
Procedure: Human embryonic kidney (HEK-293) cells were maintained and harvested as described above. Cells were plated in 96-well, black clear bottom, poly-lysine coated plates at a concentration of 40,000 cells per well in a final volume of 100 ul containing human CXCR4BacMam (MOI=25) and Gqi5 BacMam (MOI=12.5). The cells were incubated at 37° C., 5% CO2, 95% humidity for 24 h to allow for protein expression.
After the required incubation time the cells were washed once with 50 ul of fresh serum-free DMEM/F12 media containing probenicid. 50 ul of dye solution was then added to the cells (Calcium Plus Assay Kit Dye; Molecular Devices) was dissolved in 200 ml of the above probenicid/BSA containing media and incubated for 1 h. Cell plates were transferred to a Fluorometric Imaging Plate Reader (FLIPR). Upon addition the effect of the compounds on the change in [Ca^2+]i was examined to determine if the compounds were agonists or antagonists (ability to block SDF-1 alpha activity) at the CXCR4 receptor. IC50 values are determined and pKb values are calculated using the Leff and Dougall equation: KB═IC50/((2+([agonist]/EC50̂b)̂1/b−1) Where IC50 is that defined by the antagonist concentration-response curve [agonist)] is the EC80 concentration of agonist used EC50 is that defined by the agonist concentration-response curve b is the slope of the agonist concentration-response curve.

[2] = Compound cytotoxicity in HOS cells in the absence of virus (CellTiter-Glo); details: human, no virus, read-out: Cytotox (pIC50) (converted)
Procedure: Compounds were profiled against two HIV-1 viruses, the M-tropic (CCR5 utilizing) Ba-L strain and the T-tropic (CXCR4 utilizing) IIIB strain. Both viruses were propagated in human peripheral blood lymphocytes. Compounds were tested for there ability to block infection of the HOS cell line (expressing hCXCR4/hCCR5/hCD4/pHIV-LTR-luciferase) by either HIV-1 Ba-L or HIV-1 IIIB. Compound cytotoxicity was also examined in the absence of virus addition.
HOS cells (expressing hCXCR4/hCCR5/hCD4/pHIV-LTR-luciferase) were harvested and diluted in Dulbeccos modified Eagles media supplemented with 2% FCS and non-essential amino acid to a concentration of 60,000 cells/ml. The cells were plated into 96-well plates (100 ul per well) and the plates were placed in a tissue culture incubator (37° C.; 5% CO2/95% air) for a period of 24 h.
Subsequently, 50 ul of the desired drug solution (4 times the final concentration) was added to each well and the plates were returned to the tissue culture incubator (37° C.; 5% CO2/95% air) for 1 h. Following this incubation 50 ul of diluted virus was added to each well (approximately 2 million RLU per well of virus). The plates were returned to the tissue culture incubator (37° C.; 5% CO2/95% air) and were incubated for a further 96 h.
Following this incubation the endpoint for the virally infected cultures was quantified following addition of Steady-Glo Luciferase assay system reagent (Promega, Madison, Wis.). Cell viability or non-infected cultures was measured using a CellTiter-Glo luminescent cell viability assay system (Promega, Madison, Wis.). All luminescent readouts are performed on a Topcount luminescence detector (Packard, Meridien, Conn.).

[3] = Human immunodeficiency virus 1, IIIB, as determined by the infectivity assay, strain not stated in Table 2, read-out: Activity Level
[4] = Human immunodeficiency virus 1, T-tropic (CXCR4 utilizing) IIIB strain, HOS cells, 96 h, read-out: HOS (3B)

SMILES | IC50 (HIV-1 IIIB; [3]) [nM] | IC50 (HIV-1 IIIB; [4]) [nM] | IC50 [1] [nM] | IC50 (CXCR4 receptor) [nM] | IC50 at 96 h [2] [nM]
CN(Cc1nc2ccccc2n1Cc1cccnc1)C1CCCc2cccnc21 (centres unmarked) [Example 3, N-Methyl-N-{[1-(3-pyridinylmethyl)-1H-benzimidazol-2-yl]methyl}-5,6,7,8-tetrahydro-8-quinolinamine] | 500 to 10000 | 574 | 1780 | 398 | > 100000
CN(Cc1nc2ccccc2n1CCN1CCCCC1)C1CCCc2cccnc21 (centres unmarked) [Example 4, N-Methyl-N-({1-[2-(1-piperidinyl)ethyl]-1H-benzimidazol-2-yl}methyl)-5,6,7,8-tetrahydro-8-quinolinamine] | 100 to 500 | 156 | 138 | 60.3 | > 100000
CN(Cc1nc2ccccc2n1CCN1CCOCC1)C1CCCc2cccnc21 (centres unmarked) [Example 5, N-Methyl-N-({1-[2-(4-morpholinyl)ethyl]-1H-benzimidazol-2-yl}methyl)-5,6,7,8-tetrahydro-8-quinolinamine] | 100 to 500 | 225 | 200 | 123 | > 100000
CN(Cc1nc2ccccc2n1CC1CCNCC1)C1CCCc2cccnc21 (centres unmarked) [Example 6, N-Methyl-N-{[1-(4-piperidinylmethyl)-1H-benzimidazol-2-yl]methyl}-5,6,7,8-tetrahydro-8-quinolinamine] | < 100 | 90 | 240 | 282 | > 100000
CN1CCCC(Cn2c(CN(C)C3CCCc4cccnc43)nc3ccccc32)C1 (centres unmarked) [Example 7, N-Methyl-N-({1-[(1-methyl-3-piperidinyl)methyl]-1H-benzimidazol-2-yl}methyl)-5,6,7,8-tetrahydro-8-quinolinamine] | < 100 | 19 | 20.9 | 8.13 | > 100000
CN(Cc1nc2ccccc2n1CCN)C1CCCc2cccnc21 (centres unmarked) [Example 18, N-{[1-(2-Aminoethyl)-1H-benzimidazol-2-yl]methyl}-N-methyl-5,6,7,8-tetrahydro-8-quinolinamine] |  |  | 316 | 166 | > 100000
CN(Cc1nc2ccccc2n1C[C@H]1CCCN(Cc2cccn2C)C1)[C@H]1CCCc2cccnc21 [Example 104, (8S)—N-Methyl-N-{[1-({(3S)-1-[(1-methyl-1H-pyrrol-2-yl)methyl]-3-piperidinyl}methyl)-1H-benzimidazol-2-yl]methyl}-5,6,7,8-tetrahydro-8-quinolinamine] | < 100 |  |  |  | 
CN(C)CCN1CCC[C@H](Cn2c(CN(C)[C@H]3CCCc4cccnc43)nc3ccccc32)C1 [Example 105, (8S)—N-{[1-({(3S)-1-[2-(Dimethylamino)ethyl]-3-piperidinyl}methyl)-1H-benzimidazol-2-yl]methyl}-N-methyl-5,6,7,8-tetrahydro-8-quinolinamine] | < 100 |  |  |  | 
CN1CCC[C@H]1CN1CCC[C@H](Cn2c(CN(C)[C@H]3CCCc4cccnc43)nc3ccccc32)C1 [Example 106, (8S)—N-Methyl-N-({1-[((3S)-1-{[(2S)-1-methyl-2-pyrrolidinyl]methyl}-3-Piperidinyl)methyl]-1H-benzimidazol-2-yl}methyl)-5,6,7,8-tetrahydro-8-quinolinamine] | < 100 |  |  |  | 
CC(C)N1CCC[C@H]1CN1CCC[C@H](Cn2c(CN(C)[C@H]3CCCc4cccnc43)nc3ccccc32)C1 [Example 107, (8S)—N-Methyl-N-({1-[((3S)-1-{[(2S)-1-(1-methylethyl)-2-Pyrrolidinyl]methyl}-3-piperidinyl)methyl]-1H-benzimidazol-2-yl}methyl)-5,6,7,8-tetrahydro-8-quinolinamine] | < 100 |  |  |  | 
CN1CCC[C@@H]1CN1CCC[C@H](Cn2c(CN(C)[C@H]3CCCc4cccnc43)nc3ccccc32)C1 [Example 108, (8S)—N-Methyl-N-([1-[((3S)-1-{[(2R)-1-methyl-2-pyrrolidinyl]methyl}-3-piperidinyl)methyl]-1H-benzimidazol-2-yl]methyl)-5,6,7,8-tetrahydro-8-quinolinamine] | < 100 |  |  |  | 
CC(C)N1CCC[C@@H]1CN1CCC[C@H](Cn2c(CN(C)[C@H]3CCCc4cccnc43)nc3ccccc32)C1 [Example 109, (8S)—N-Methyl-N-({1-[((3S)-1-{[(2R)-1-(1-methylethyl)-2-pyrrolidinyl]methyl}-3-piperidinyl)methyl]-1H-benzimidazol-2-yl}methyl)-5,6,7,8-tetrahydro-8-quinolinamine] | 100 to 500 |  |  |  | 
CN(Cc1nc2ccccc2n1CCCN)[C@H]1CCCc2cccnc21 [Example 110, (8S)—N-{[1-(3-Aminopropyl)-1H-benzimidazol-2-yl]methyl}-N-methyl-5,6,7,8-tetrahydro-8-quinolinamine] | < 100 |  |  |  | 
